Measurements as given in PMC12155096 (International Journal of Molecular Sciences, 2025).
Where two headings read alike, the source gives them in different places.

Legend:
CYP3A4 = CYP3A4 (Homo sapiens, UniProt P08684)
human CYP2C19 [1] = molecular target: T1, human CYP2C19 (Homo sapiens, UniProt P33261); experiment: biochemical
human CYP2D6 = human CYP2D6 (Homo sapiens, UniProt P10635); experiment: biochemical
human CYP1A2 [2] = molecular target: T2, human CYP1A2 (Homo sapiens, UniProt P05177); experiment: biochemical
T2 sequence (P05177 1-516): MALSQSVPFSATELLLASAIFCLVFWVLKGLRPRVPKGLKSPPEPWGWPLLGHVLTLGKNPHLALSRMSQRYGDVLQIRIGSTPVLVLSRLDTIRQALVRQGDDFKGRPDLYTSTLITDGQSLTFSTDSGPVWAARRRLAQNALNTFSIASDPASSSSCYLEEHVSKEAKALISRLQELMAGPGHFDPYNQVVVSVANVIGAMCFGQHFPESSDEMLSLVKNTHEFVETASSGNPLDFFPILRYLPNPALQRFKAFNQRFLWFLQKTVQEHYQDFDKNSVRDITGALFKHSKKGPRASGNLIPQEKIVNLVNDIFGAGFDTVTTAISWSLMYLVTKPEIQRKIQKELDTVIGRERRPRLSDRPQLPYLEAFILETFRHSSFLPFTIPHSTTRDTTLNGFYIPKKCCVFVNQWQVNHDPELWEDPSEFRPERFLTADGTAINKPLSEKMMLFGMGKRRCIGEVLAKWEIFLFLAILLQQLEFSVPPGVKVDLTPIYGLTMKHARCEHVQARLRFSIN

human CYP2C9 = human CYP2C9 (Homo sapiens, UniProt P11712); experiment: biochemical
human CYP2C19 [3] = molecular target: T1, human CYP2C19
human CYP1A2 [4] = molecular target: T2, human CYP1A2
[5] = molecular target: Photinus pyralis (firefly) luciferase (Photinus pyralis, UniProt P08659); experiment: biochemical; assay type: biochemical
[6] = CYP2C19 AC50 (half-maximal activity concentration)
[7] = CYP2D6 AC50 (half-maximal activity concentration)
[8] = CYP1A2 AC50 (half-maximal activity concentration)
[9] = CYP2C9 AC50 (half-maximal activity concentration)

T1 sequence (P33261 whole entry): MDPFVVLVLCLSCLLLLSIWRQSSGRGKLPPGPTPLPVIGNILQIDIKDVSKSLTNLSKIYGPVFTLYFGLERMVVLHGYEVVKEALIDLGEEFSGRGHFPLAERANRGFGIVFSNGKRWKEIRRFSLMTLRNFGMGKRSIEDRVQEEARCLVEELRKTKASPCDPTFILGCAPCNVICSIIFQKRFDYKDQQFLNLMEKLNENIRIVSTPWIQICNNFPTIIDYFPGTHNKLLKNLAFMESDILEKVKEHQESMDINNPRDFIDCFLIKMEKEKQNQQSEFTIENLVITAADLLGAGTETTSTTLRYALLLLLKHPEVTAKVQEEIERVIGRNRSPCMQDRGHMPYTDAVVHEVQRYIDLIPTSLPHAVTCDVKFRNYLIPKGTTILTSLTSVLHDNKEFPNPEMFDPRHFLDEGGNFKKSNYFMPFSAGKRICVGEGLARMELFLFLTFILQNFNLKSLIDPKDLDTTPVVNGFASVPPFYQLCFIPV
Sequence of human CYP2D6 (P10635 whole entry): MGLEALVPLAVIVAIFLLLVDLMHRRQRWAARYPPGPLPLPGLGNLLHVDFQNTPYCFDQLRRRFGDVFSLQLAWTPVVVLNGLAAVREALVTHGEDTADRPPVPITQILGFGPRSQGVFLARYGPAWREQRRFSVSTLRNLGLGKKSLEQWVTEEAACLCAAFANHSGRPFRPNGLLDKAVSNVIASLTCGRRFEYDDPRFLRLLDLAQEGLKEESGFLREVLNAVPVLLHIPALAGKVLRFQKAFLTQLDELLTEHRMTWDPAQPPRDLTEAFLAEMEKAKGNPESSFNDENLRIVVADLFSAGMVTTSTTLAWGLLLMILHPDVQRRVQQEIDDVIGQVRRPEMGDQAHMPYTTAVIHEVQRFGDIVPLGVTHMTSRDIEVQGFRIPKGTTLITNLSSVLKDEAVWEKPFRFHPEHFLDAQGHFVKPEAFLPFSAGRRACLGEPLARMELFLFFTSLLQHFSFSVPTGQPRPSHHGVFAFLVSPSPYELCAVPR
Sequence of CYP3A4 (P08684 whole entry): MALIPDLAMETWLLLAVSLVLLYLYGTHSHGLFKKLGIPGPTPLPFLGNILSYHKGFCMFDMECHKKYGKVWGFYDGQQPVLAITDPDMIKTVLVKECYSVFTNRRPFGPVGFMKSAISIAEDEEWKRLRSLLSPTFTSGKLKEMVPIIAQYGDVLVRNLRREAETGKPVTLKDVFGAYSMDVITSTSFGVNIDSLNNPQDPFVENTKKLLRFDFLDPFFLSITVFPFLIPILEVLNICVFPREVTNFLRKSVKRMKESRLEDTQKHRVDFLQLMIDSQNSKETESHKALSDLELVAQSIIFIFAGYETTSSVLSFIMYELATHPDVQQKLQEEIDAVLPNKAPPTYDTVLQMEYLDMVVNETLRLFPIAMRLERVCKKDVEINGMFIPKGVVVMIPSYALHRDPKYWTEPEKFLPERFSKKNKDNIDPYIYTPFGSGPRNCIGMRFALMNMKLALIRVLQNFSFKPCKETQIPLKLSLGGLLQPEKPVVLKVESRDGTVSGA
Sequence of human CYP2C9 (P11712 whole entry): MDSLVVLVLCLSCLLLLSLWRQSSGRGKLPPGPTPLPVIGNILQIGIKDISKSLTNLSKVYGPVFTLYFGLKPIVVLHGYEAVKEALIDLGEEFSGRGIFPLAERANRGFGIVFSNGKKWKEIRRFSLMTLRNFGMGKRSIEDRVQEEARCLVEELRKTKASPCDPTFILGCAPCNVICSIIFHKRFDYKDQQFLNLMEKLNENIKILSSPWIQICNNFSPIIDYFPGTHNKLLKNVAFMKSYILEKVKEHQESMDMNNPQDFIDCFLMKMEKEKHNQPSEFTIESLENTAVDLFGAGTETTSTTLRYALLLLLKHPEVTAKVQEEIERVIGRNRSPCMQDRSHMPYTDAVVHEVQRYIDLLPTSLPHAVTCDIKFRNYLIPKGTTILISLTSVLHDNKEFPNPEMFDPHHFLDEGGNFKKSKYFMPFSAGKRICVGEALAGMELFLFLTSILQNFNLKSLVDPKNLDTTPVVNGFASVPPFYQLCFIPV
Sequence of Photinus pyralis (firefly) luciferase (P08659 whole entry): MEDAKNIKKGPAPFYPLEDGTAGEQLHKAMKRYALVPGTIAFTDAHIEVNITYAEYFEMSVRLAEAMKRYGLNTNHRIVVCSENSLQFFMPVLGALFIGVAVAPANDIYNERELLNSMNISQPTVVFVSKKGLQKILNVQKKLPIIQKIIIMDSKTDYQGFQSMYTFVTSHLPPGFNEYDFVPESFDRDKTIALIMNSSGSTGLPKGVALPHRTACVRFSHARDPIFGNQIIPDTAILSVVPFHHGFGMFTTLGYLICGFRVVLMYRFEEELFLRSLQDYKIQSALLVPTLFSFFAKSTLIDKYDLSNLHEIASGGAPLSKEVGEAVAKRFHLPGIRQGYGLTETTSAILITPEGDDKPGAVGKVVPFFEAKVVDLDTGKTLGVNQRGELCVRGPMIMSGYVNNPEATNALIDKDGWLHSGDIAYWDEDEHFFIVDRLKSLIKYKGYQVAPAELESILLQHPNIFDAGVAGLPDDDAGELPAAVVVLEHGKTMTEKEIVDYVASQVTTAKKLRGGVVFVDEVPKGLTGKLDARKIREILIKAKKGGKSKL

Structure (SMILES)	CYP3A4 AC50 (half-maximal activity concentration) (CYP3A4)	AC50 (human CYP2C19 [1]; [6])	AC50 (human CYP2D6; [7])	AC50 (human CYP1A2 [2]; [8])	AC50 (human CYP2C9; [9])	AC50 (human CYP2D6)	AC50 (human CYP2C9)	other results
O=c1[nH]sc2ccccc12 [1,2-Benzisothiazolin-3-one]	Inconclusive inhibitor	2.38 µM	11.3 µM	31.7 µM	34.3 µM	–	–	–
Oc1cc(Cl)c(Cl)c(Cl)c1 [3,4,5-Trichlorophenol]	Inconclusive inhibitor	19.5 µM	29 µM	26.1 µM	11.1 µM	–	–	–
Oc1ccc(-c2ccc(O)cc2)cc1 [4,4'-Biphenyldiol]	Inconclusive inhibitor	–	–	–	–	61.3 µM	9.08 µM	AC50 (human CYP1A2 [2]): 32.1 µM; CYP2C19 AC50 (half-maximal activity concentration) (human CYP2C19 [3]): Inconclusive inhibitor
O=C(c1ccc(O)cc1)c1ccc(O)cc1 [4,4'-Dihydoxybenzophenone]	–	–	–	–	–	63.5 ± 20.9 µM	0.77 ± 0.4 µM	CYP3A4 AC50 (half-maximal activity concentration) (CYP3A4; mean ± standard deviation from three experiments, activity call in words where no AC50): Inconclusive inhibitor; AC50 (human CYP2C19 [1]): 31.8 ± 10.5 µM; AC50 (human CYP1A2 [2]): 38.5 ± 2.51 µM
Oc1ccc(Sc2ccc(O)cc2)cc1 [4,4'-Thiodiphenol]	Inconclusive inhibitor	–	–	–	–	30.9 µM	3.66 µM	AC50 (human CYP2C19 [1]): 36 µM; CYP1A2 AC50 (half-maximal activity concentration) (human CYP1A2 [4]): Inconclusive inhibitor
O=S(=O)(c1ccccc1)c1ccc(Cl)cc1 [4-Chlorophenyl phenyl sulfone]	Inactive	–	–	–	–	66.7 µM	5.88 µM	AC50 (human CYP2C19 [1]): 4.75 µM; AC50 (human CYP1A2 [2]): 43.2 µM
O=C(c1ccccc1)c1ccc(O)cc1 [4-Hydroxybenzophenone]	Inactive	31.7 µM	36.1 µM	29 µM	2.7 µM	–	–	–
CC(C)(C)c1ccc(O)c(O)c1 [4-tert-Butylcatechol]	Inactive	13.6 µM	9.07 µM	60 µM	73.7 µM	–	–	–
C=CC[C@]1(O)CC[C@H]2[C@@H]3CCC4=CC(=O)CCC4=C3C=C[C@@]21C [Altrenogest]	–	–	–	–	–	–	–	IC50 (human CYP2C19 [1]): 8.15 ± 2.81 µM; IC50 (human CYP2D6): 46.9 ± 11.3 µM; CYP1A2 IC50 (human CYP1A2 [4]): Inactive; Luciferase IC50 [5]: Inactive; IC50 (human CYP2C9): 14.8 ± 4.35 µM
CC(C)COCC(CN(Cc1ccccc1)c1ccccc1)N1CCCC1 (centres unmarked) [Bepridil]	–	–	–	–	–	–	–	IC50 (human CYP2D6; CYP2D6 IC50): 0.06 µM; CYP1A2 IC50 (human CYP1A2 [4]): Inactive; Luciferase IC50 [5]: Inactive
NS(=O)(=O)c1ccc(Cl)c(S(N)(=O)=O)c1 [Clofenamide]	Inactive	–	30.6 µM	–	19.8 µM	–	–	CYP1A2 AC50 (half-maximal activity concentration) (human CYP1A2 [4]): Inactive; CYP2C19 AC50 (half-maximal activity concentration) (human CYP2C19 [3]): Inactive
